Reference: PMC9879991, “Biomolecular condensates formed by designer minimalistic peptides” (Nature Communications, 2023)
No end group written: not given here.

How the values were obtained:
[1] = Encapsulation efficiency of peptide droplets, rhodamine B payload; assay type: physicochemical; settings: C initial 10 µM, 20 mM peptide; for %EE: 20 mM Tris + 0.2 M NaCl pH 8, 15,000 g 10 min, supernatant absorbance 555 nm
Excerpt: Next, we studied how peptide composition affects the encapsulation efficiency of the droplets by using GFP, rhodamine B, and fluorescein as fluorescent payload model systems (Fig. 4). We analyzed the encapsulation efficiency of the fluorescent payloads by using both confocal microscopy and absorbance measurements of the payloads in the dilute vs. the condensed phase (Fig. 4a–c). […] WGR-1 has the highest EE of fluorescein. In addition to π-π interactions, WGR-1 might form hydrogen bonding with the hydroxyl groups or electrostatic interactions with the deprotonated carboxylic acid of the dye.
Stock solutions (1 mM) of the fluorescein and rhodamine B dye molecules were prepared in 20 mM Tris buffer. Coacervate solutions of 20 mM peptide were prepared in 20 mM Tris + 0.2 M NaCl at pH 8. From these, a volume of 148.5 µl was mixed with 1.5 µl of dye solution in a 1.5 ml Eppendorf tube and pipetted. After 10 min the samples were centrifuged at 15,000 × g for 10 min. A volume of 120 μl from the supernatant was collected and vortexed and then the absorbance of 35 μl triplicates was measured (at λ = 490 nm for fluorescein and λ = 555 nm for RhB) in a 384 well black plate by Biotek H1 synergy plate reader (purchased from Lumitron, Israel). For GFP, a 7.5 µl of 20 mM Tris buffer to a 7.5 μl GFP aliquot from the purchased stock solution. The 15 µl of GFP solution was added to 135 µl of peptide solution and was mixed in a 1.5 ml Eppendorf tube and pipetted. The concentration of GFP at the supernatant was measured via fluorescence. All experiments were performed in triplicate. The concentration of the supernatant solutions determinate by calibration curves. Imaging was made to 30 μl of uncentrifuged samples. Efficiency of encapsulation (%EE) was calculated using Eq. 2. 2 %EE=CT−Csup/CT

[2] = Phase diagram in tris buffer: pH at which turbidity (LLPS) appears vs peptide concentration; assay type: physicochemical; settings: 0.2 M NaCl, room temperature; for pH at which turbidity (LLPS) appears: 20 mM tris, turbidity A500
Excerpt: We sought to design a library of LLPS-promoting peptide building blocks which form synthetic biomolecular condensates with tunable chemical composition and physical properties. We hypothesized that minimalistic variants of protein low complexity domains (LCDs) will self-assemble into liquid droplets through LLPS. Specifically, we envisioned that in order to keep the sequence length relatively short, the peptide composition should include high content of aromatic and basic amino acids that can interact through π–π or cation–π interactions. To test this hypothesis, we designed a primary sequence that contains various LLPS-promoting motifs. Inspired by LCDs of ribonucleoproteins (RNPs) and IDPs that are rich in arginine-glycine (RG) dyad or RGG triad repeats, we incorporated three repeats of an RG dyad (Fig. 1a), where glycine (Gly) provides flexibility and arginine (Arg) promotes electrostatic interactions with the terminal carboxylic group, cation- π or π interactions with aromatic amino acids (Fig. 1a). While both lysine (Lys) and Arg have basic side chain groups, the guanidine group of Arg delocalizes the charge due to the π bonded system and thus can promote more versatile binding modes compared to Lys, through cation–π and π–π interactions. Thus, considering that the Arg side chain can interact with side chains of aromatic amino acids, we incorporated tryptophan (Trp) and tyrosine (Tyr) into the peptide sequence at a 1:1 stoichiometry with Arg, with aromatic amino acids positioned at both ends of the sequence to enhance π–π stacking interactions. Finally, we considered the elastin-like polypeptide (ELP) repeating motif VPGXG. This pentapeptide sequence is a common LLPS-promoting motif used in engineered ordered/disordered polypeptides, where X can be any amino acid except proline (Pro), and a hydrophobic amino acid at this position promotes coacervation[39],[40]. […] Building on these previous findings, we incorporated the sequence WPGVG, thus obtaining the 14-mer peptide WGRGRGRGWPGVGY termed WGR-1 (Figs. 1a, 2a). WGR-1 forms droplets by self-coacervation at neutral pH in the presence of 0.2 M NaCl, which reduces the electrostatic repulsion of the basic peptide (Fig. 1b). We created a phase diagram of WGR-1 as a function of pH and peptide concentration in tris buffer by gradually increasing the pH and monitoring LLPS, as indicated by appearance of sample turbidity (Fig. 2b), where all experiments performed at room temperature. As expected, increasing peptide concentration decreased the pH in which visible turbidity and droplets are observed, where the critical LLPS concentration is 8 mM. To confirm that the turbidity is a result of LLPS and droplet formation rather than aggregation, we used bright field laser scanning confocal microscopy (Fig. 2c).
Fig. 2 Peptide sequence controls LLPS propensity and droplet formation. a Table of the designed peptide sequences. b Phase diagram of the peptides as a function of peptide concentration and pH, in tris buffer with 0.2 M NaCl, at room temperature. […] Source data are provided as a Source Data file. c Confocal microscopy bright field images of peptide liquid droplets formed at a concentration of 20 mM in Tris buffer at pH 8 with 0.2 M NaCl. Scale bars = 20 μm. Inset: macroscopic images of the peptide solutions. ‘Source data are provided as a Source Data file. TEXT PRINTED IN THE PICTURE: (b) WGR-1: LLPS | (b) WGR-2: No LLPS | (b) WGR-3: LLPS | (b) WGR-4: LLPS | (b) WGR-5: LLPS | (b) WGK: No LLPS DOUBTS OF THE COPYIST ABOUT THIS PICTURE: Panel b: "LLPS" / "No LLPS" are class labels printed inside the phase diagrams, with no numbers. In the diagrams with a curve, "LLPS" marks a region of the plot. / Panel c: the handwritten labels on the vials in the insets cannot be read with certainty and were left out. […]

Q: Which “%EE” value ([1]; replicate 1, given as fraction) does the source give for WGRGRGRGWPGVGY [WGR-1] here?
A: Its value is 0.9106.

Q: What about the “%EE” value ([1]; replicate 2, given as fraction) of the same sequence?
A: Its value is 0.9029.

Q: What about the “%EE” value ([1]; replicate 3, given as fraction) of the same sequence?
A: The value was 0.8168.

Q: And the “Encapsulation efficiency (EE)” value ([1]; 20 mM Tris + 0.2 M NaCl pH 8, supernatant absorbance 555 nm, mean of n=3, in percent)?
A: The value was 87.6774%.

Q: And the “pH at which turbidity (LLPS) appears” value ([2]; 8 mM peptide, mean of n=3)?
A: The value was 8.483.

Q: What about the “pH at which turbidity (LLPS) appears” value ([2]; 8 mM peptide, replicate 1) of the same sequence?
A: Its value is 8.43.

Q: What about the “pH at which turbidity (LLPS) appears” value ([2]; 8 mM peptide, replicate 2) of the same sequence?
A: The value was 8.47.

Q: What about the “pH at which turbidity (LLPS) appears” value ([2]; 8 mM peptide, replicate 3) of the same sequence?
A: The value was 8.55.

Q: What about the “pH at which turbidity (LLPS) appears” value ([2]; 10 mM peptide, mean of n=3) of the same sequence?
A: Its value is 7.88.

Q: What about the “pH at which turbidity (LLPS) appears” value ([2]; 10 mM peptide, replicate 1) of the same sequence?
A: The value was 7.84.

Q: And the “pH at which turbidity (LLPS) appears” value ([2]; 10 mM peptide, replicate 2)?
A: The value was 7.86.

Q: And the “pH at which turbidity (LLPS) appears” value ([2]; 10 mM peptide, replicate 3)?
A: Its value is 7.94.

Q: What about the “pH at which turbidity (LLPS) appears” value ([2]; 15 mM peptide, mean of n=3) of the same sequence?
A: Its value is 7.483.

Q: And the “pH at which turbidity (LLPS) appears” value ([2]; 15 mM peptide, replicate 1)?
A: The value was 7.45.

Q: What about the “pH at which turbidity (LLPS) appears” value ([2]; 15 mM peptide, replicate 2) of the same sequence?
A: Its value is 7.51.

Q: And the “pH at which turbidity (LLPS) appears” value ([2]; 15 mM peptide, replicate 3)?
A: Its value is 7.49.

Q: And the “pH at which turbidity (LLPS) appears” value ([2]; 20 mM peptide, mean of n=3)?
A: The value was 7.12.

Q: And the “pH at which turbidity (LLPS) appears” value ([2]; 20 mM peptide, replicate 1)?
A: Its value is 7.13.

Q: And the “pH at which turbidity (LLPS) appears” value ([2]; 20 mM peptide, replicate 2)?
A: Its value is 7.08.

Q: And the “pH at which turbidity (LLPS) appears” value ([2]; 20 mM peptide, replicate 3)?
A: Its value is 7.15.

Q: And the “pH at which turbidity (LLPS) appears” value ([2]; 30 mM peptide, mean of n=3)?
A: The value was 6.85.

Q: And the “pH at which turbidity (LLPS) appears” value ([2]; 30 mM peptide, replicate 1)?
A: Its value is 6.82.

Q: And the “pH at which turbidity (LLPS) appears” value ([2]; 30 mM peptide, replicate 3)?
A: The value was 6.88.

Q: What about the “critical LLPS concentration” value ([2]; tris buffer, lowest of 5-30 mM at which turbidity/droplets form) of the same sequence?
A: The value was 8 mM.
